Measurements as given in patent US10512265B2, “Pesticidally active heterocyclic derivatives with sulphur containing substituents” (Syngenta Participations AG, priority 2015, dated 2019).

Columns and labels:
[1] = test system: Spodoptera littoralis (Egyptian cotton leaf worm); experiment: Example B1: activity against Spodoptera littoralis, sprayed cotton leaf discs; format: in vivo; settings: foliar, 72 h, application rate 200 ppm, L1 larvae, 3 days after infestation, read-out: control of Spodoptera littoralis (at least one of mortality, anti-feedant effect, growth inhibition)
Procedure: Example B1: Activity Against Spodoptera littoralis (Egyptian Cotton Leaf Worm)
Cotton leaf discs were placed on agar in 24-well microtiter plates and sprayed with aqueous test solutions prepared from 10′000 ppm DMSO stock solutions. After drying the leaf discs were infested with five L1 larvae. The samples were assessed for mortality, anti-feedant effect, and growth inhibition in comparison to untreated samples 3 days after infestation. Control of Spodoptera littoralis by a test sample is when at least one of mortality, anti-feedant effect, and growth inhibition is higher than the untreated sample.

[2] = test system: Aedes aegypti (yellow fever mosquito); experiment: Example B11: activity against Aedes aegypti, dry deposits in tissue culture plates; format: in vivo; settings: 200 ppm in ethanol, dry deposit, adult females, after 48 h and/or 24 h
Procedure: Example B11: Activity Against Aedes Aegypti (Yellow Fever Mosquito)
Test solutions, at an application rate of 200 ppm in ethanol, were applied to 12-well tissue culture plates. Once the deposits were dry, five, two to five days old adult female Aedes aegypti were added to each well, and sustained with a 10% sucrose solution in a cotton wool plug. Assessment of knockdown was made one hour after introduction, and mortality was assessed at 24 and 48 hours after introduction.

[3] = test system: Diabrotica balteata (corn root worm); experiment: Example B4: activity against Diabrotica balteata, sprayed maize sprouts; format: in vivo; settings: 96 h, application rate 200 ppm, L2 larvae, 4 days after infestation, read-out: effect in at least one of the two categories (mortality or growth inhibition)
Procedure: Example B4: Activity Against Diabrotica Balteata (Corn Root Worm)
Maize sprouts, placed on an agar layer in 24-well microtiter plates were treated with aqueous test solutions prepared from 10′000 ppm DMSO stock solutions by spraying. After drying, the plates were infested with L2 larvae (6 to 10 per well). The samples were assessed for mortality and growth inhibition in comparison to untreated samples 4 days after infestation.

[4] = test system: Frankliniella occidentalis (western flower thrips); experiment: Example B7: activity against Frankliniella occidentalis, sprayed sunflower leaf discs; format: in vivo; settings: foliar, 168 h, application rate 200 ppm, population of mixed ages, 7 days after infestation
Procedure: Example B7: Activity Against Frankliniella occidentalis (Western Flower Thrips)
Sunflower leaf discs were placed on agar in 24-well microtiter plates and sprayed with aqueous test solutions prepared from […] stock solutions. After drying the leaf discs were infested with a Frankliniella population of mixed ages. The samples were assessed for mortality 7 days after infestation.

[5] = test system: Plutella xylostella (diamond back moth); experiment: Example B3: activity against Plutella xylostella, treated artificial diet; format: in vivo; settings: 120 h, application rate 200 ppm, L2 larvae, 5 days after infestation, read-out: effect in at least one of the two categories (mortality or growth inhibition)
Procedure: Example B3: Activity Against Plutella xylostella (Diamond Back Moth)
24-well microtiter plates with artificial diet were treated with aqueous test solutions prepared from 10′000 ppm DMSO stock solutions by pipetting. After drying, the plates were infested with L2 larvae (10 to 15 per well). The samples were assessed for mortality and growth inhibition in comparison to untreated samples 5 days after infestation.

[6] = test system: Euschistus heros (neotropical brown stink bug); experiment: Example B9: activity against Euschistus heros, sprayed soybean leaf; format: in vivo; settings: 120 h, application rate 200 ppm, N-2 nymphs, 5 days after infestation, read-out: effect in at least one of the two categories (mortality or growth inhibition)
Procedure: Example B9: Activity Against Euschistus heros(Neotropical Brown Stink Bug)
Soybean leaf on agar in 24-well microtiter plates were sprayed with aqueous test solutions prepared from 10′000 ppm DMSO stock solutions. After drying the leaf were infested with N-2 nymphs. The samples were assessed for mortality and growth inhibition in comparison to untreated samples 5 days after infestation.

[7] = test system: Spodoptera littoralis (Egyptian cotton leaf worm); experiment: Example B2: activity against Spodoptera littoralis, systemic via lettuce grown on treated agar; format: in vivo; settings: 144 h, test rate 12.5 ppm, in agar, uptake by lettuce roots, Spodoptera eggs, 6 days after infestation, read-out: effect in at least one of the three categories (mortality, anti-feedancy, or growth inhibition)
Excerpt: Example B2: Activity Against Spodoptera littoralis (Egyptian Cotton Leaf Worm)
Test compounds were applied by pipette from 10′000 ppm DMSO stock solutions into 24-well plates and mixed with agar. Lettuce seeds were placed on the agar and the multi well plate was closed by another plate which contains also agar. After 7 days the roots have absorbed the compound and the lettuce has grown into the lid plate. The lettuce leafs were now cut off into the lid plate. Spodoptera eggs were pipetted through a plastic stencil on a humid gel blotting paper and the plate closed with it.
The samples were assessed for mortality, anti-feedant effect and growth inhibition in comparison to untreated samples 6 days after infestation.

[8] = test system: Myzus persicae (green peach aphid); experiment: Example B5: activity against Myzus persicae, sprayed sunflower leaf discs; format: in vivo; settings: foliar, 144 h, application rate 200 ppm, aphid population of mixed ages, 6 days after infestation
Procedure: Example B5: Activity Against Myzus persicae (Green Peach Aphid)
Sunflower leaf discs were placed on agar in a 24-well microtiter plate and sprayed with aqueous test solutions prepared from 10′000 ppm DMSO stock solutions. After drying, the leaf discs were infested with an aphid population of mixed ages. The samples were assessed for mortality 6 days after infestation.

[9] = test system: Tetranychus urticae (two-spotted spider mite); experiment: Example B10: activity against Tetranychus urticae, sprayed bean leaf discs; format: in vivo; settings: foliar, 192 h, application rate 200 ppm, mixed population (mobile stages), 8 days after infestation
Procedure: Example B10: Activity Against Tetranychus urticae (Two-Spotted Spider Mite)
Bean leaf discs on agar in 24-well microtiter plates were sprayed with aqueous test solutions prepared from 10′000 ppm DMSO stock solutions. After drying the leaf discs were infested with a mite population of mixed ages. The samples were assessed for mortality on mixed population (mobile stages) 8 days after infestation.

[10] = test system: Bemisia tabaci (cotton white fly); experiment: Example B8: activity against Bemisia tabaci, sprayed cotton leaf discs; format: in vivo; settings: foliar, 144 h, application rate 200 ppm, adult white flies, 6 days after incubation
Procedure: Example B8: Activity Against Bemisia tabaci (Cotton White Fly)
Cotton leaf discs were placed on agar in 24-well microtiter plates and sprayed with aqueous test solutions prepared from 10′000 ppm DMSO stock solutions. After drying the leaf discs were infested with adult white flies. The samples were checked for mortality 6 days after incubation.

[11] = test system: Myzus persicae (green peach aphid); experiment: Example B6: activity against Myzus persicae, roots of pea seedlings in test solution; format: in vivo; settings: 144 h, test rate 24 ppm, roots of infested pea seedlings in test solution, 6 days
Procedure: Example B6: Activity Against Myzus persicae (Green Peach Aphid)
Roots of pea seedlings infested with an aphid population of mixed ages were placed directly in the aqueous test solutions prepared from 10′000 DMSO stock solutions. The samples were assessed for mortality 6 days after placing seedlings in test solutions.

SMILES	mortality at 200 ppm [1] [%]	pest or weed control at 200 ppm [2] [%]	percent effect (mortality or growth inhibition) at 200 ppm [3] [%]	mortality at 200 ppm [4] [%]	percent effect (mortality or growth inhibition) at 200 ppm [5] [%]	percent effect (mortality or growth inhibition) at 200 ppm [6] [%]	percent control (mortality, anti-feedancy or growth inhibition) at 12.5 ppm [7] [%]	mortality at 200 ppm [8] [%]	mortality at 200 ppm [9] [%]	mortality at 200 ppm [10] [%]	mortality at 24 ppm [11] [%]	melting point [°C]
CCS(=O)(=O)c1cc(-c2ccc(C(F)(F)F)cc2)cnc1-c1ncc(-c2ccc(C(F)(F)F)nc2)n1C [Compound P1, 3-ethylsulfonyl-2-[1-methyl-5-[6-(trifluoromethyl)-3-pyridyl]imidazol-2-yl]-5-[4-(trifluoromethyl)phenyl]pyridine]	≥ 80	≥ 80	≥ 80	≥ 80	≥ 80	≥ 80						
CCS(=O)(=O)c1cc(-c2ccc(C(F)(F)F)cc2)cnc1-c1ncc(-c2ccc(C(F)(F)F)cc2)n1C [Compound P2, 3-ethylsulfonyl-2-[1-methyl-5-[4-(trifluoromethyl)phenyl]imidazol-2-yl]-5-[4-(trifluoromethyl)phenyl]pyridine]	≥ 80	≥ 80	≥ 80	≥ 80	≥ 80							
CCS(=O)(=O)c1cc(-c2ccc(F)cc2)cnc1-c1ncc(-c2ccc(C(F)(F)F)nc2)n1C [Compound P3, 3-ethylsulfonyl-5-(4-fluorophenyl)-2-[1-methyl-5-[6-(trifluoromethyl)-3-pyridyl]imidazol-2-yl]pyridine]	≥ 80	≥ 80	≥ 80	≥ 80	≥ 80		≥ 80	≥ 80	≥ 80			
CCS(=O)(=O)c1cc(-c2ccc(F)cc2)cnc1-c1ncc(-c2ccc(F)cc2)n1C [Compound P4]	≥ 80		≥ 80		≥ 80		≥ 80	≥ 80		≥ 80		
CCS(=O)(=O)c1cc(-c2ccc(Cl)cc2)cnc1-c1ncc(-c2ccc(C(F)(F)F)nc2)n1C [Compound P5]	≥ 80	≥ 80	≥ 80	≥ 80	≥ 80	≥ 80		≥ 80				
CCS(=O)(=O)c1cc(-c2ccccc2)cnc1-c1ncc(-c2ccc(C(F)(F)F)nc2)n1C [Compound P6]	≥ 80		≥ 80	≥ 80	≥ 80		≥ 80	≥ 80				
CCS(=O)(=O)c1cc(-c2ccc(Cl)cc2)cnc1-c1ncc(-c2ccc(SC(F)(F)F)cc2)n1C [Compound P7]	≥ 80	≥ 80	≥ 80		≥ 80							
CCS(=O)(=O)c1cc(-c2ncccn2)cnc1-c1ncc(-c2ccc(C(F)(F)F)nc2)n1C [Compound P8]	≥ 80		≥ 80	≥ 80	≥ 80	≥ 80	≥ 80	≥ 80			≥ 80	
CCS(=O)(=O)c1cc(-c2ccc(Cl)cc2)cnc1-c1ncc(-c2ccc(S(=O)(=O)C(F)(F)F)cc2)n1C [Compound P9]	≥ 80	≥ 80	≥ 80		≥ 80							
CCS(=O)(=O)c1cc(-c2ncccn2)cnc1-c1ncc(-c2cncc(C(F)(F)F)c2)n1C [Compound P10]	≥ 80		≥ 80	≥ 80	≥ 80	≥ 80	≥ 80	≥ 80			≥ 80	
CCS(=O)(=O)c1cc(-c2ncc(Cl)cn2)cnc1-c1ncc(-c2ccc(C(F)(F)F)nc2)n1C [Compound P11]	≥ 80	≥ 80	≥ 80		≥ 80	≥ 80	≥ 80	≥ 80				
CCS(=O)(=O)c1cc(-c2ccc(Cl)cc2)cnc1-c1ncc(-c2ccc(C(F)(F)F)cc2)n1C [Compound P12]	≥ 80	≥ 80	≥ 80	≥ 80	≥ 80							
CCS(=O)(=O)c1cc(-c2ccc(Cl)cc2)cnc1-c1ncc(-c2cccc(SC(F)(F)F)c2)n1C [Compound P13]	≥ 80		≥ 80		≥ 80							
CCS(=O)(=O)c1cc(-c2ncc(Cl)cn2)cnc1-c1ncc(-c2cnc(C(F)(F)F)nc2)n1C [Compound P14]												224 to 226
CCS(=O)(=O)c1cc(-c2ncccn2)cnc1-c1ncc(-c2cnc(C(F)(F)F)nc2)n1C [Compound P15]												231 to 233
CCS(=O)(=O)c1cc(-c2cccc(F)c2)cnc1-c1ncc(-c2ccc(C(F)(F)F)nc2)n1C [Compound P16]												170 to 172
CCS(=O)(=O)c1cc(-c2cccc(F)c2)cnc1-c1ncc(-c2cnc(C(F)(F)F)nc2)n1C [Compound P17]												193 to 195
CCS(=O)(=O)c1cc(-c2cccc(F)c2)cnc1-c1ncc(-c2cncc(C(F)(F)F)c2)n1C [Compound P18]												155 to 157
